Reference: US10308631B2, “Selective anti-cancer compounds” (NATIONAL UNIVERSITY OF SINGAPORE, priority 2015, dated 2019)

Tests used:
[1] = system: mitotic marker phospho-histone H3 at serine 10 (pH3 (Ser10)) in transformed BJ cells; test: Immunoblot analysis of mitotic marker pH3 (Ser10), derivatives of Compound 1; format: cell-based; conditions: Homo sapiens, band intensities pH3(Ser10)/β-actin vs DMSO control, 24 h
Protocol: (§1) FIG. 4 compares the ability of Compound 1 (a131), and various derivatives thereof (referred to using their code numbers for brevity; the designated chemical compound for each code number is provided in the chemical examples section below), to inhibit autophagy and/or mitosis. BJ transformed cells were treated with 5 μM of various Compounds as shown, for 24 h. Cells were harvested and total lysates were analysed by detecting the mitotic marker phospho-histone H3 at serine 10 (pH3 (Ser10)) and the autophagosome marker LC3. Antibodies raised against β-actin were used as an internal loading control.
(§2) The ability of Compound 1 to inhibit lysosome function was examined using immunoblotting. HeLa cervical cancer cells were cultured in Dulbecco's modified Eagle's medium (DMEM) supplemented with 10% Fetal Bovine Serum (FBS, Thermo Scientific). The HeLa cells were treated with different concentrations of Compound 1 (0.625, 1.25, 2.5, 5 and 10 μM, dimethyl sulfoxide (DMSO, Kanto Kagaku)), chloroquine (CQ) (1.25, 2.5, 10, 50 and 100 μM, DMSO) or DMSO for 6 h. Then, the treated cells were harvested and lysed in 1% triton lysis buffer [25 mM Tris HCl (pH8.0), 150 mM NaCl, 1% triton-X100, 1 mM dithiothreitol (DTT), protease inhibitor mix (Complete Mini, Roche) and phosphatase inhibitor (PhosphoStop, Roche)]. The proteins in total lysates were boiled with sample buffer (60 mM Tris-HCl (pH 6.8), 25% glycerol, 2% SDS, 14.4 mM 2-mercaptoethanol, 0.1% bromophenol blue) and resolved by 14% tris-glycine sodium dodecyl sulfate polyacrylamide gel electrophoresis (SDS-PAGE) and subjected to immunoblot analysis.
(§3) Defects in lysosome function and inhibition of autophagy can be measured by accumulation of LC3-phosphatidylethanolamine conjugated non-soluble form (LC3-II), which are converted from soluble LC3-I. Thus, antibodies raised against LC3 (Cell Signaling, Cat#4108) were used to determine lysosomal function and integrity. Antibodies raised against phosphorylated histone H3 at serine 10 residue (pH3) (Cell signaling, Cat#3377) were used as the marker for mitotic dysfunction and arrest. Antibodies raised against β-actin (Millipore, Cat#MAB1501) were used as an internal loading control. The inhibitory ability of Compound 1 was also quantitatively compared to CQ.
(§4) Derivatives of Compound 1 were tested to see if they had similar dual activity, or presented only one of the activities of Compound 1. The protocol for immunoblot analysis described in Biology Example 1 was applied to the additional indicated compounds.
(§5) Activities of compounds were determined by two independent experiments. First, Compounds were classified according to the intensity of increase in each of the mitotic marker phospho-histone H3 at serine 10 (pH3 (Ser 10)) and the autophagosome marker LC3, respectively, at 1.25 μM, when compared with 1.25 μM Compound 1 (a131).
(§6) Compounds classified “++” on either “mitosis” or “inhibits lysosome” show similar increase in each of the mitotic marker phospho-histone H3 at serine 10 (pH3 (Ser10)) and the autophagosome marker LC3, respectively, at 2.5 μM, when compared with 1.25 μM Compound 1 (a131); and compounds classified “+” on either “mitosis” or “inhibits lysosome” show similar increase in each of the mitotic marker phospho-histone H3 at serine 10 (pH3 (Ser10)) and the autophagosome marker LC3, respectively, at a concentration range of 5-10 μM, when compared with 1.25 μM Compound 1 (a131).
Compounds classified “+/−” on either “mitosis” or “inhibits lysosome” show less increase in each of the mitotic marker phospho-histone H3 at serine 10 (pH3 (Ser10)) and the autophagosome marker LC3, respectively, at a concentration range of 5-10 μM, when compared with 1.25 μM Compound 1 (a131).
Next, the ability of Compound 1 and its derivatives to induce mitotic arrest in transformed BJ cells was quantified as the fold induction of band intensities [pH3(Ser10)/β-actin] in comparison with DMSO control. […]

[2] = system: autophagosome marker LC3 (LC3 II/LC3 I) in transformed BJ cells; test: Immunoblot analysis of autophagosome marker LC3 (lysosome function), derivatives of Compound 1; format: cell-based; conditions: Homo sapiens, band intensities LC3 II/LC3 I vs DMSO control, 24 h
Protocol: as §1, §2, §3, §4, §5, §6
Compounds classified “+/−” on either “mitosis” or “inhibits lysosome” show less increase in each of the mitotic marker phospho-histone H3 at serine 10 (pH3 (Ser10)) and the autophagosome marker LC3, respectively, at a concentration range of 5-10 μM, when compared with 1.25 μM Compound 1 (a131). […]

[3] = system: pH3 (Ser10) and LC3 in BJ transformed cells; test: Immunoblot classification of compounds by pH3 and LC3 (FIG. 4); format: cell-based, human; conditions: 5 μM, 24 h
Protocol: as §1, §4

Row | Structure (SMILES) | fold induction at 5 µM [1] | fold induction at 5 µM [2] | Inhibition of lysosome function and/or mitosis (FIG. 4) [3]
1 | N#C/C(=C\c1cccc2cnccc12)c1c[nH]c2cc(Br)ccc12 [Compound 10, (Z)-2-(6-bromo-1H-indol-3-yl)-3-(isoquinolin-5-yl)acrylonitrile] | 1.6 | 0.7 | 
2 | CC(C)(C)OC(=O)NCCC(=O)n1cc(/C(C#N)=C/c2cccc3cnccc23)c2ccccc21 [Compound 20, (Z)-tert-butyl (3-(3-(1-cyano-2-(isoquinolin-5-yl)vinyl)-1H-indol-1-yl)-3-oxopropyl)carbamate] | 4.8 | 3.9 | exhibit the dual properties of inhibiting both lysosome function and mitosis
3 | N#C/C(=C\c1cccc2cnccc12)c1c[nH]c2ccc(CN3CCCC3)cc12 [Compound 32, (Z)-3-(isoquinolin-5-yl)-2-(5-((pyrrolidin-1-yl)methyl)-1H-indol-3-yl)acrylonitrile] | 1 | 3.3 | inhibit lysosome function only
4 | N#C/C(=C\c1cccc2cnccc12)c1c[nH]c2ccc(OCCC3OCCO3)cc12 [Compound 11, (Z)-2-(5-(2-(1,3-dioxolan-2-yl)ethoxy)-1H-indol-3-yl)-3-(isoquinolin-5-yl)acrylonitrile] | 1 | 0.7 | 
5 | COc1ccc2c(/C(C#N)=C/c3cccc4cnccc34)c[nH]c2c1 [Compound 9, (Z)-3-(isoquinolin-5-yl)-2-(6-methoxy-1H-indol-3-yl)acrylonitrile] | 4.3 | 2.6 | exhibit the dual properties of inhibiting both lysosome function and mitosis
6 | CC(=O)NCCC(=O)n1cc(/C(C#N)=C/c2cccc3cnccc23)c2ccccc21 [Compound 17, (Z)—N-(3-(3-(1-cyano-2-(isoquinolin-5-yl)vinyl)-1H-indol-1-yl)-3-oxopropyl)acetamide] | 2.8 | 2.3 | 
7 | CC(=O)Nc1ccc2[nH]cc(/C(C#N)=C/c3cccc4cnccc34)c2c1 [Compound 14, N-(3-((Z)-1-cyano-2-(isoquinolin-5-yl)vinyl)-1H-indol-5-yl)acetamide] | 1.2 | 0.5 | 
8 | N#C/C(=C\c1cncc2cnccc12)c1c[nH]c2ccccc12 [Compound 4, (Z)-2-(1H-indol-3-yl)-3-(2,7-naphthyridin-4-yl)acrylonitrile] | 1.4 | 1 | 
9 | N#C/C(=C\c1cccc2cnccc12)c1cn(C(=O)CCN)c2ccccc12 [Compound 22, (Z)-2-(1-(3-aminopropanoyl)-1H-indol-3-yl)-3-(isoquinolin-5-yl)acrylonitrile] | 2.1 | 4.1 | exhibit the dual properties of inhibiting both lysosome function and mitosis
10 | N#C/C(=C\c1cccc2cnccc12)c1c[nH]c2ccc(NC(=O)CCCC[C@@H]3SC[C@@H]4NC(=O)N[C@@H]43)cc12 [Compound 15, N-(3-((Z)-1-cyano-2-(isoquinolin-5-yl)vinyl)-1H-indol-5-yl)-5-((3aS,4S,6aR)-2-oxohexahydro-1H-thieno[3,4-d]imidazol-4-yl)pentanamide] | 1.7 | 1.1 | 
11 | N#C/C(=C\c1cccc2cnccc12)c1c[nH]c2ccc(OCCCN3CCCC3)cc12 [Compound 13, (Z)-2-(5-(3-(pyrrolidin-1-yl)propoxy)-1H-indol-3-yl)-3-(isoquinolin-5-yl)acrylonitrile] | 0.9 | 6 | inhibit lysosome function only
12 | N#C/C(=C\c1cccc2cnccc12)c1c[nH]c2c(CN3CCCC3)cccc12 [Compound 33, (Z)-3-(isoquinolin-5-yl)-2-(7-((pyrrolidin-1-yl)methyl)-1H-indol-3-yl)acrylonitrile] | 0.8 | 3.7 | inhibit lysosome function only
13 | C(=C\c1c[nH]c2ncccc12)/c1cccc2cnccc12 [Compound 27, 5-((E)-2-(1H-pyrrolo[2,3-b]pyridin-3-yl)vinyl)isoquinoline] | 1.2 | 2 | inhibit lysosome function only
14 | N#C/C(=C\c1cccc2cnccc12)c1cn(C(=O)CCNC(=O)CCCC[C@@H]2SC[C@@H]3NC(=O)N[C@@H]32)c2ccccc12 [Compound 24, N-(3-(3-((Z)-1-cyano-2-(isoquinolin-5-yl)vinyl)-1H-indol-1-yl)-3-oxopropyl)-5-((3aS,4S,6aR)-2-oxohexahydro-1H-thieno[3,4-d]imidazol-4-yl)pentanamide] | 3.2 | 3.3 | exhibit the dual properties of inhibiting both lysosome function and mitosis
15 | N#C/C(=C\c1cccc2cnccc12)c1cn(C(=O)CCCC[C@@H]2SC[C@@H]3NC(=O)N[C@@H]32)c2ccccc12 [Compound 18, (Z)-3-(isoquinolin-5-yl)-2-(1-(5-((3aS,4S,6aR)-2-oxohexahydro-1H-thieno[3,4-d]imidazol-4-yl)pentanoyl)-1H-indol-3-yl)acrylonitrile] | 2.2 | 1.7 | inhibit mitosis only
16 | COc1cccc2c(/C(C#N)=C/c3cccc4cnccc34)c[nH]c12 [Compound 6, (Z)-3-(isoquinolin-5-yl)-2-(7-methoxy-1H-indol-3-yl)acrylonitrile] | 3.9 | 2.7 | exhibit the dual properties of inhibiting both lysosome function and mitosis
17 | C(=C\c1c[nH]c2ccccc12)/c1cccc2cnccc12 [Compound 25, 5-((E)-2-(1H-indol-3-yl)vinyl)isoquinoline] | 1.3 | 5.4 | 
18 | N#C/C(=C\c1cccc2cnccc12)c1c[nH]c2ccc(Cl)cc12 [Compound 7, (Z)-2-(5-chloro-1H-indol-3-yl)-3-(isoquinolin-5-yl)acrylonitrile] | 1.4 | 2 | inhibit lysosome function only
19 | N#C/C(=C\c1cccc2cnccc12)c1c[nH]c2ccc(Br)cc12 [Compound 8, (Z)-2-(5-bromo-1H-indol-3-yl)-3-(isoquinolin-5-yl)acrylonitrile] | 2.1 | 4 | exhibit the dual properties of inhibiting both lysosome function and mitosis
20 | N#C/C(=C\c1cccc2cnccc12)c1c[nH]c2c(Br)cccc12 [Compound 5, (Z)-2-(7-bromo-1H-indol-3-yl)-3-(isoquinolin-5-yl)acrylonitrile] | 1.4 | 2.2 | 
21 | O=C(Nc1cccc2cnccc12)c1c[nH]c2ccccc12 [Compound 29, N-(isoquinolin-5-yl)-1H-indole-3-carboxamide] | 1.4 | 0.4 | 
